Experimental data published in ChEMBL document CHEMBL1125669, “Synthesis of potential dual-acting radiation sensitizer antineoplastic agents: 2,2-dimethylphosphoraziridines containing 2-nitroimidazoles or other electron-affinic moieties” (1991).

Tests used:
Assay type in all cases: functional
Mus musculus [1] = experiment: In vivo antitumor activity against P-388 leukemia in CDF1 mice at 256 mg or 670 umol by ip administration expressed as average wt. change determined between day 0 and day 6 of experiment
Mus musculus [2] = experiment: In vivo antitumor activity against P-388 leukemia in CDF1 mice at 128 mg or 335 umol by ip administration expressed as average wt. change determined between day 0 and day 6 of experiment
Mus musculus [3] = experiment: In vivo antitumor activity against P-388 leukemia in CDF1 mice at 32 mg or 84 umol by ip administration expressed as median survival time of drug treated mice/median survival time of control mice x100
Mus musculus [4] = experiment: In vivo antitumor activity against P-388 leukemia in CDF1 mice at 8 mg or 21 umol by ip administration expressed as average wt. change determined between day 0 and day 6 of experiment
Mus musculus [5] = experiment: In vivo antitumor activity against P-388 leukemia in CDF1 mice at 32 mg or 84 umol by ip administration expressed as average wt. change determined between day 0 and day 6 of experiment
Mus musculus [6] = experiment: In vivo antitumor activity against P-388 leukemia in CDF1 mice at 64 mg or 167 umol by ip administration expressed as average wt. change determined between day 0 and day 6 of experiment
Mus musculus [7] = experiment: In vivo antitumor activity against P-388 leukemia in CDF1 mice at 16 mg or 42 umol by ip administration expressed as median survival time of drug treated mice/median survival time of control mice x100
Mus musculus [8] = experiment: In vivo antitumor activity against P-388 leukemia in CDF1 mice at 256 mg or 670 umol by ip administration expressed as median survival time of drug treated mice/median survival time of control mice x100
Mus musculus [9] = experiment: In vivo antitumor activity against P-388 leukemia in CDF1 mice at 64 mg or 167 umol by ip administration expressed as median survival time of drug treated mice/median survival time of control mice x100
Mus musculus [10] = experiment: In vivo antitumor activity against P-388 leukemia in CDF1 mice at 16 mg or 42 umol by ip administration expressed as average wt. change determined between day 0 and day 6 of experiment
Mus musculus [11] = experiment: In vivo antitumor activity against P-388 leukemia in CDF1 mice at 128 mg or 335 umol by ip administration expressed as median survival time of drug treated mice/median survival time of control mice x100
Mus musculus [12] = experiment: In vivo antitumor activity against P-388 leukemia in CDF1 mice at 8 mg or 21 umol by ip administration expressed as median survival time of drug treated mice/median survival time of control mice x100
Mus musculus [13] = experiment: In vivo antitumor activity against P-388 leukemia in CDF1 mice at 128 mg or 331 umol by ip administration expressed as median survival time of drug treated mice/median survival time of control mice x100
Mus musculus [14] = experiment: effect of drug treatment in combination with gamma radiation on P-388 leukemia in mice at 250 mg/kg and 600R expressed as median survival time of drug treated mice/median survival time of control mice x100
Mus musculus [15] = experiment: In vivo antitumor activity against P-388 leukemia in CDF1 mice at 32 mg or 83 umol by ip administration expressed as median survival time of drug treated mice/median survival time of control mice x100
Mus musculus [16] = experiment: effect of drug treatment in combination with gamma radiation on P-388 leukemia in mice at 250 mg/kg and 200R expressed as median survival time of drug treated mice/median survival time of control mice x100
Mus musculus [17] = experiment: In vivo antitumor activity against P-388 leukemia in CDF1 mice at 256 mg or 663 umol by ip administration expressed as average wt. change determined between day 0 and day 6 of experiment
Mus musculus [18] = experiment: In vivo antitumor activity against P-388 leukemia in CDF1 mice at 256 mg or 663 umol by ip administration expressed as median survival time of drug treated mice/median survival time of control mice x100
Mus musculus [19] = experiment: In vivo antitumor activity against P-388 leukemia in CDF1 mice at 16 mg or 41 umol by ip administration expressed as median survival time of drug treated mice/median survival time of control mice x100
Mus musculus [20] = experiment: In vivo antitumor activity against P-388 leukemia in CDF1 mice at 64 mg or 166 umol by ip administration expressed as median survival time of drug treated mice/median survival time of control mice x100
Mus musculus [21] = experiment: effect of drug treatment in combination with gamma radiation on P-388 leukemia in mice at 250 mg/kg and 400R expressed as median survival time of drug treated mice/median survival time of control mice x100
Mus musculus [22] = experiment: In vivo antitumor activity against P-388 leukemia in CDF1 mice at 128 mg or 331 umol by ip administration expressed as average wt. change determined between day 0 and day 6 of experiment
Mus musculus [23] = experiment: effect of drug treatment in combination with gamma radiation on P-388 leukemia in mice at 250 mg/kg and 600R expressed as average weight change
Mus musculus [24] = experiment: In vivo antitumor activity against P-388 leukemia in CDF1 mice at 64 mg or 166 umol by ip administration expressed as average wt. change determined between day 0 and day 6 of experiment
Mus musculus [25] = experiment: effect of drug treatment in combination with gamma radiation on P-388 leukemia in mice at 250 mg/kg and 200R expressed as average weight change
Mus musculus [26] = experiment: In vivo antitumor activity against P-388 leukemia in CDF1 mice at 32 mg or 83 umol by ip administration expressed as average wt. change determined between day 0 and day 6 of experiment
Mus musculus [27] = experiment: effect of drug treatment in combination with gamma radiation on P-388 leukemia in mice at 250 mg/kg and 400R expressed as average weight change
Mus musculus [28] = experiment: In vivo antitumor activity against P-388 leukemia in CDF1 mice at 16 mg or 41 umol by ip administration expressed as average wt. change determined between day 0 and day 6 of experiment

Row | SMILES | Average weight change (Mus musculus [1]) [g] | Average weight change (Mus musculus [2]) [g] | T/C (Mus musculus [3]) [%] | Average weight change (Mus musculus [4]) [g] | Average weight change (Mus musculus [5]) [g] | Average weight change (Mus musculus [6]) [g] | T/C (Mus musculus [7]) [%] | T/C (Mus musculus [8]) [%] | T/C (Mus musculus [9]) [%] | Average weight change (Mus musculus [10]) [g] | T/C (Mus musculus [11]) [%] | T/C (Mus musculus [12]) [%] | further results
1 | CC1(C)CN1P(=O)(NC(=O)OCc1ccc([N+](=O)[O-])cc1)N1CC1(C)C (configuration not stated) | 0.6 | 2 | 106 | 1.4 | 2.1 | 1.4 | 113 | 119 | 113 | 1.2 | 113 | 113 | –
2 | CC1(C)CN1P(=O)(NC(=O)OCc1ccccc1[N+](=O)[O-])N1CC1(C)C (configuration not stated) | -1.5 | -1.1 | 118 | 0.6 | -0.4 | -1.1 | 106 | 153 | 129 | 0 | 141 | 106 | –
3 | CC1(C)CN1P(=O)(NC(=O)OCCn1ccnc1[N+](=O)[O-])N1CC1(C)C (configuration not stated) | – | – | – | 1.6 | – | – | – | – | – | – | – | 113 | T/C (Mus musculus [13]): 156%; T/C (Mus musculus [14]): 230%; T/C (Mus musculus [15]): 125%; T/C (Mus musculus [16]): 190%; Average weight change (Mus musculus [17]): -1 g; T/C (Mus musculus [18]): 169%; T/C (Mus musculus [19]): 125%; T/C (Mus musculus [20]): 144%; T/C (Mus musculus [21]): 200%; Average weight change (Mus musculus [22]): -1.1 g; Average weight change (Mus musculus [23]): 0.67 g; Average weight change (Mus musculus [24]): -0.5 g; Average weight change (Mus musculus [25]): 1.92 g; Average weight change (Mus musculus [26]): 0.8 g; Average weight change (Mus musculus [27]): 1.17 g; Average weight change (Mus musculus [28]): 0.6 g
